Measurements: patent publication US7592168B2, “Cephalosporin C acylase mutant and method for preparing 7-ACA using same” (Sandoz AG, priority 2003, dated 2009)
Residue numbers refer to the chain shown, from its start.

Key:
Type in all cases: biochemical
[1] = biological target: T1, Pseudomonas sp. SE83 CPC acylase AcyII sixfold mutant S12, V121αA/G139αS/F58βN/I75βT/I176βV/S471βC (alpha-subunit SEQ ID NO: 7, beta-subunit SEQ ID NO: 8) (Pseudomonas sp., UniProt P15558, F297N/G140S/I314T/I415V/S710C/V122A); test: End-product inhibition by 7-ACA (inhibition constant), S12 sixfold mutant; conditions: end-product inhibition of CPC conversion; purified enzyme; pH 8.5
T1 construct: made in house; host or cells: E. coli MC1061
T1 sequence (P15558 2-230 V122A/G140S): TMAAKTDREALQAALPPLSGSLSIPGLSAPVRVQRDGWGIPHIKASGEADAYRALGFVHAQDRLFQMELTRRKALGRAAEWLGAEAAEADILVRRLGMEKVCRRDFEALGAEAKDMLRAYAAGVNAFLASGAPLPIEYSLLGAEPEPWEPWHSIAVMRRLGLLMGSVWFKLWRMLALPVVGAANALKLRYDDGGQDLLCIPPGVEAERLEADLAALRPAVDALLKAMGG
T1 sequence (P15558 240-774 F297N/I314T/I415V/S710C): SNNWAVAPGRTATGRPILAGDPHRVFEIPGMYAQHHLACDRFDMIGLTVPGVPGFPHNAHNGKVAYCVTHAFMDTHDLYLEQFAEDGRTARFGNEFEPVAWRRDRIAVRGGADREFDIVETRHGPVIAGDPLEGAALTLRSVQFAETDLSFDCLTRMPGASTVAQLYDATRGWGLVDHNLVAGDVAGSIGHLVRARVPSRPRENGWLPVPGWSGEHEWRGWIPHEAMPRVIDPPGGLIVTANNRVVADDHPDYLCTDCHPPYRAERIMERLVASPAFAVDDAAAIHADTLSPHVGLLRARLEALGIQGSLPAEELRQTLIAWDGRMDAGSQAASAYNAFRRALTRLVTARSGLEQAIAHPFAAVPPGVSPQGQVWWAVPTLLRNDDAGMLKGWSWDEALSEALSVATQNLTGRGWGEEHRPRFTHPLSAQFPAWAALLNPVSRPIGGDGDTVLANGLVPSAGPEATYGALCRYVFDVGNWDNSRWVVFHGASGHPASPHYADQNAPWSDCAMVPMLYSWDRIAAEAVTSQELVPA
Procedure: (§1) The enzyme activity of CPC acylase mutant to CPC was measured according to the method described by Park et al. with minor modifications as follows (Park, et al., Kor. J. Appl. Microbiol. Biotechnol. 23: 559-564, 1995). A substrate solution was prepared by dissolving CPC (purity 74.2%; CJ Corp., Korea) in 0.1 M Tris-HCl buffer solution (pH 8.0) at a concentration of 20 mg/ml and adjusting pH to 8 with 1 N NaOH. 20 μl of the CPC solution was mixed with 20 μl of the crude enzyme solution prepared above and the reaction mixture was incubated at 37° C. for 5 min. After the reaction, the mixture (200 μl) of 50 mM NaOH and 20% glacial acetic acid (1:2) was added thereto to stop the reaction. 200 μl of the supernatant recovered from the reaction mixture by centrifugation was mixed with 40 μl of 0.5% (w/v) PDAB (p-dimethylaminobenzaldehyde; Sigma, USA) dissolved in a methanol and the reaction mixture was incubated at 37° C. for 10 min. After the reaction, the absorbance of reaction mixture was measured at 415 nm and quantified by comparing with a calibration curve of standard material. […] Meanwhile, the specific activity of CPC acylase mutant for CPC was determined by measuring the amount of protein remaining in the enzyme solution according to the method described by Bradford (Bradford, M., Anal. Biochem. 72: 248-254, 1976) and representing it as an active unit corresponding to 1 mg of protein. […]

[2] = biological target: T2, Pseudomonas sp. SE83 CPC acylase AcyII, wild type, SEQ ID NO: 2 (alpha-subunit SEQ ID NO: 4, beta-subunit SEQ ID NO: 5) (Pseudomonas sp., UniProt P15558); test: End-product inhibition by 7-ACA (inhibition constant), wild-type CPC acylase; conditions: end-product inhibition of CPC conversion; pH 8.5
T2 construct: made in house; host or cells: E. coli MC1061
T2 sequence (P15558 2-230): T1 sequence (P15558 2-230 V122A/G140S) with A121V, S139G
T2 sequence (P15558 240-774): T1 sequence (P15558 240-774 F297N/I314T/I415V/S710C) with N58F, T75I, V176I, C471S
Procedure: as §1

[3] = biological target: T3, Pseudomonas sp. SE83 CPC acylase AcyII fivefold mutant F169αY/M31βL/F58βM/H70βS/I176βV (mI176) (Pseudomonas sp., UniProt P15558, F170Y/F297M/H309S/I415V/M270L); test: CPC hydrolysis kinetics (Lineweaver-Burk plot), fivefold mutant; conditions: substrate CPC; purified enzyme; 0.1 M Tris-HCl pH 8.0, 37° C.; Lineweaver-Burk plot
T3 construct: made in house; host or cells: E. coli MC1061
T3 sequence (P15558 240-774 M270L/F297M/H309S/I415V): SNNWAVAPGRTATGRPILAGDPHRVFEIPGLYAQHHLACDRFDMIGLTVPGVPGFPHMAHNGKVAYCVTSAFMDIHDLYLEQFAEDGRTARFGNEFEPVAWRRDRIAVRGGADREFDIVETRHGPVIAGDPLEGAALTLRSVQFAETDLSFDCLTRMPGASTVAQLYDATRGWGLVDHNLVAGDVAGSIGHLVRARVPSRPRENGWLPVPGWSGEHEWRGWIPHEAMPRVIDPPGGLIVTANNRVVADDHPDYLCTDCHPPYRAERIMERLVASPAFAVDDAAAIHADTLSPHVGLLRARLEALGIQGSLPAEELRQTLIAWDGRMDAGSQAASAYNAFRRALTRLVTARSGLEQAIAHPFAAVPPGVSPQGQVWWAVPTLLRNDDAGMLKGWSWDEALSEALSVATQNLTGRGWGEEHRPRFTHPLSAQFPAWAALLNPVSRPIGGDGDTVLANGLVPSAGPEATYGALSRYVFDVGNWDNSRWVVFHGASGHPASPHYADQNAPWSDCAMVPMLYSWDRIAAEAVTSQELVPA
T3 sequence (P15558 2-230 F170Y): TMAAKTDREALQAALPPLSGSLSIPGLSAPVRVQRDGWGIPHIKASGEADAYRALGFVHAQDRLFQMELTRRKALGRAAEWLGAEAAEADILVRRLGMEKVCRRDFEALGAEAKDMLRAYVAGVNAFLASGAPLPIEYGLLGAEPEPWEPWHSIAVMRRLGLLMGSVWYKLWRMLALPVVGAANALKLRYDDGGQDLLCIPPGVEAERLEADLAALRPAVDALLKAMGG
Procedure: (§2) The enzyme activity of CPC acylase mutant to CPC was measured according to the method described by Park et al. with minor modifications as follows (Park, et al., Kor. J. Appl. Microbiol. Biotechnol. 23: 559-564, 1995). A substrate solution was prepared by dissolving CPC (purity 74.2%; CJ Corp., Korea) in 0.1 M Tris-HCl buffer solution (pH 8.0) at a concentration of 20 mg/ml and adjusting pH to 8 with 1 N NaOH. 20 μl of the CPC solution was mixed with 20 μl of the crude enzyme solution prepared above and the reaction mixture was incubated at 37° C. for 5 min. After the reaction, the mixture (200 μl) of 50 mM NaOH and 20% glacial acetic acid (1:2) was added thereto to stop the reaction. 200 μl of the supernatant recovered from the reaction mixture by centrifugation was mixed with 40 μl of 0.5% (w/v) PDAB (p-dimethylaminobenzaldehyde; Sigma, USA) dissolved in a methanol and the reaction mixture was incubated at 37° C. for 10 min. After the reaction, the absorbance of reaction mixture was measured at 415 nm and quantified by comparing with a calibration curve of standard material. At this time, 1 unit has been defined as the amount of enzyme capable to produce 1 μmole of 7-ACA from CPC per minute. Meanwhile, the specific activity of CPC acylase mutant for CPC was determined by measuring the amount of protein remaining in the enzyme solution according to the method described by Bradford (Bradford, M., Anal. Biochem. 72: 248-254, 1976) and representing it as an active unit corresponding to 1 mg of protein. The reactivity of CPC acylase mutant to CPC was determined by the following steps of adding the same amount of protein to a reaction mixture, performing an enzyme reaction for a fixed time, measuring the amount of 7-ACA produced in the reaction mixture, and representing it as a relative value. The end-product inhibition by 7-ACA was determined by adding a protein corresponding to the same active unit to a reaction mixture, performing an enzyme reaction for a fixed time; measuring the amount of 7-ACA produced in the reaction mixture, and representing it as a relative value.
(§3) E. coli MC1061 transformant containing the recombinant plasmid introduced with the wild-type or the inventive CPC acylase mutant gene was cultivated in 1 l of a terrific broth (1.2% Bacto-Trypton, 2.4% Yeast Extract, 0.4% glycerol, […]) containing […] of chloramphenicol at 30° C. for 16 hr to obtain a pre-culture solution. 10 ml of the pre-culture solution was inoculated into the same medium, and then, cultured at 25° C., 200 rpm for 48 hr with vigorous shaking. The culture solution was subjected to centrifugation at 4° C., 8,000 rpm for 10 min to separate a precipitate, and the precipitate washed twice with 20 mM Tris-HCl buffer solution (pH 8.0). […]

[4] = system: Pseudomonas sp. SE83 CPC acylase AcyII fivefold mutant F169αY/M31βL/F58βM/H70βS/I176βV (mI176); test: as above; conditions: substrate CPC; fivefold mutant vs wild-type
Procedure: as §2, §3

SMILES	Ki [1] [µM]	Ki [2] [µM]	Kcat [3] [s⁻¹]	Kcat/Km [3] [M⁻¹ s⁻¹]	higher reaction efficiency to CPC as compared with the wild-type enzyme [4]	lower Km value as compared with the wild-type enzyme [4]
CC(=O)OCC1=C(C(=O)O)N2C(=O)[C@@H](N)[C@H]2SC1 [7-ACA, 7-aminoacephalosporanic acid]	1900	400				
CC(=O)OCC1=C(C(=O)O)N2C(=O)[C@@H](NC(=O)CCC[C@@H](N)C(=O)O)[C@H]2SC1 [CPC, Cephalosporin C]			2.4	300	about 15 fold	about 6.3 fold
